Legend:
Trypanosoma cruzi [1] = experiment: Antitrypanosomal activity against intracellular form of Trypanosoma cruzi; type: functional, organism-based
Leishmania donovani [2] = experiment: Antileishmanial activity against axenic amastigotes of Leishmania donovani MHOM/SD/1962/1S-Cl2d infected in human THP1 cells assessed as parasite growth inhibition at 50 uM after 24 hrs by AlamarBlue viability assay; type: functional; conditions: read-out: GI
Leishmania donovani [3] = experiment: Antileishmanial activity against axenic amastigotes of Leishmania donovani MHOM/SD/1962/1S-Cl2d infected in human THP1 cells assessed as parasite growth inhibition at 15 uM after 24 hrs by AlamarBlue viability assay; type: functional; conditions: read-out: GI
L6 = experiment: Cytotoxicity against rat L6 cells after 72 hrs by AlamarBlue dye based fluorimetric method; type: cell-based; conditions: L6, 72 h
Leishmania donovani [4] = experiment: Antileishmanial activity against axenic amastigotes of Leishmania donovani MHOM/SD/1962/1S-Cl2d […] assessed as parasite growth inhibition after 24 hrs by AlamarBlue viability assay; type: functional, organism-based
Leishmania donovani [5] = experiment: Antileishmanial activity against axenic amastigotes of Leishmania donovani MHOM/SD/1962/1S-Cl2d infected in human macrophages at 5 uM; type: functional
[6] = Selectivity index, ratio of IC50 for rat L6 cells to IC50 for Trypanosoma cruzi Tulahuen C2C4 amastigotes; type: toxicity, cell-based; conditions: read-out: Ratio IC50
[7] = Cytotoxicity against human THP1 cells after 48 hrs by AlamarBlue viability assay; type: cell-based; conditions: THP-1, 48 h
[8] = Selectivity index, ratio of IC50 for human THP1 cells to IC50 for axenic amastigotes of Leishmania donovani MHOM/SD/1962/1S-Cl2d infected in human THP1 cells; type: toxicity, cell-based, THP-1; conditions: read-out: Ratio IC50
Trypanosoma cruzi [9] = experiment: Antitrypanosomal activity against trypomastigote form of Trypanosoma cruzi Tulahuen C2C4 expressing LacZ gene infected in rat L6 cells after 96 hrs by photometric method; type: functional, organism-based; conditions: Tulahuen C2C4, L6, 96 h
Trypanosoma cruzi [10] = experiment: Antitrypanosomal activity against metacyclic form of Trypanosoma cruzi SN3 infected in African green monkey Vero cells after 72 hrs by Giemsa staining; type: functional, organism-based
[11] = Selectivity index, ratio of IC50 for African green monkey Vero cells to IC50 for metacyclic form of Trypanosoma cruzi SN3; type: toxicity, cell-based; conditions: read-out: Ratio IC50
Leishmania donovani [12] = experiment: Selectivity for axenic amastigotes of Leishmania donovani MHOM/SD/1962/1S-Cl2d infected in human macrophages over axenic amastigotes of Leishmania donovani MHOM/SD/1962/1S-Cl2d infected in human THP1 cells; type: functional, THP-1
Trypanosoma cruzi [13] = experiment: Potency index, ratio of IC50 for benznidazole to IC50 for test compound against trypomastigote form of Trypanosoma cruzi Tulahuen C2C4 expressing LacZ gene infected in rat L6 cells; type: functional
Leishmania donovani [14] = experiment: Antileishmanial activity against amastigotes of Leishmania donovani MHOM/SD/1962/1S-Cl2d infected in human THP1 cells assessed as parasite growth inhibition at 1 uM after 24 hrs by AlamarBlue viability assay; conditions: THP-1, 24 h

SMILES	inhibition of growth at 50 µM (Leishmania donovani [2]) [%]	inhibition of growth at 15 µM (Leishmania donovani [3]) [%]	IC50 (Leishmania donovani [4]) [µM]	IC50 [7] [µM]	selectivity ratio [8]	also measured
CC(C)c1cc2c(c(O)c1O)[C@@]1(C)CCCC(C)(C)C1=C(O)C2=O [14-DEOXYCOLEON U]						IC50 (Trypanosoma cruzi [1]): 25.7 µM
CC(C)c1ccc2c(c1)CC[C@H]1[C@](C)(CNC(=O)CCC(=O)O)CCC[C@]21C	98.1	55				
CC(C)c1ccc2c(c1)CC[C@H]1[C@](C)(CNC(=O)/C=C\C(=O)O)CCC[C@]21C	98.8	90.7	1.9	145	76	IC50 (L6): 33.5 µM; inhibition at 5 µM (Leishmania donovani [5]): 34.7%; selectivity ratio [6]: 4; IC50 (Trypanosoma cruzi [9]): 9.5 µM
C#CC(=O)NC[C@]1(C)CCC[C@]2(C)c3ccc(C(C)C)cc3CC[C@@H]12	99.8	98.1	4.1	< 3	< 1	
CC(=O)NC[C@]1(C)CCC[C@]2(C)c3ccc(C(C)C)cc3CC[C@@H]12	98.5	96	2.4	33.3	14	IC50 (L6): 24.3 µM; selectivity ratio [6]: 6; IC50 (Trypanosoma cruzi [9]): 3.7 µM
CC(C)c1ccc2c(c1)CC[C@H]1[C@](C)(CNC(=O)c3ccc[nH]3)CCC[C@]21C	99.1	90.6	3.2	33.3	10	
COC(=O)[C@]1(C)CCC[C@]2(C)C3=C(CC[C@@H]12)C(=O)C(C(C)C)=CC3=O						IC50 (Trypanosoma cruzi [10]): 17.3 µM; selectivity ratio [11]: 45
CC(C)c1ccc2c(c1)CC[C@H]1[C@](C)(CNC(=O)c3nccnc3C(=O)O)CCC[C@]21C	9.4					
CC(C)c1ccc2c(c1)CC[C@H]1[C@](C)(CNC(=O)c3ccccc3C(=O)O)CCC[C@]21C	98.5	34.9				
CCCC(=O)NC[C@]1(C)CCC[C@]2(C)c3ccc(C(C)C)cc3CC[C@@H]12	96.6	73.2	5.1	56.3	11	
C=CC(=O)NC[C@]1(C)CCC[C@]2(C)c3ccc(C(C)C)cc3CC[C@@H]12	99.8	99.6	0.37	23.2	63	IC50 (L6): 36.7 µM; inhibition at 5 µM (Leishmania donovani [5]): 94.7%; selectivity ratio [6]: 58; selectivity ratio (Leishmania donovani [12]): 6; Ratio IC50 (Trypanosoma cruzi [13]): 3.5; IC50 (Trypanosoma cruzi [9]): 0.6 µM
CC(C)c1ccc2c(c1)CC[C@H]1[C@](C)(CNC(=O)/C=C/c3ccc([N+](=O)[O-])cc3)CCC[C@]21C	42.7					
CC(C)c1ccc2c(c1)CC[C@H]1[C@](C)(CNC(=O)c3ccccc3)CCC[C@]21C	95.7	56.3				
CC(C)c1ccc2c(c1)CC[C@H]1[C@](C)(CNC(=O)/C=C/c3ccccc3)CCC[C@]21C	42.4					
CC(C)c1ccc2c(c1)CC[C@H]1[C@](C)(CN)CCC[C@]21C	68.7					IC50 (L6): 6.5 µM; selectivity ratio [6]: 1; IC50 (Trypanosoma cruzi [9]): 7.4 µM
C[C@@H]1[C@H](O)[C@@H](C)/C=C/C=C/C=C/C=C/C=C/C=C/C=C/[C@H](O[C@@H]2O[C@H](C)[C@@H](O)[C@H](N)[C@@H]2O)C[C@@H]2O[C@](O)(C[C@@H](O)C[C@@H](O)[C@H](O)CC[C@@H](O)C[C@@H](O)CC(=O)O[C@H]1C)C[C@H](O)[C@H]2C(=O)O [AMPHOTERICIN B]						inhibition at 1 µM (Leishmania donovani [14]): > 90%
